The values that follow come from ChEMBL document CHEMBL1201862, “PubChem BioAssay data set” (2004).

Some test systems named below: BT-549; CAKI-1; HCC 2998; HOP-62; HOP-92; HT-29; LOX IMVI; Malme-3M; NCI-H460; NCI-H522; OVCAR-4; PC-3; RPMI-8226; SF-268; SK-MEL-2; SK-OV-3; SNB-75; TK-10; UACC-257; UACC-62.
Test in all cases: NCI anticancer screen, dose series, 48 h

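Dose response: 5 concentrations. Exposure: 48 h. Format: 96-well plates. Endpoint: linear interpolation; highest concentration if not reached. Abbreviation: GI50, concentration required for 50% inhibition of growth.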 Active and inactive are the calls of the source. Rule as the data show it: active = GI50 up to about 1.1 µM and inactive = higher. Some results are limits rather than exact numbers.

For the compound `CN(C)CCNC(=O)c1cccc2c(NC(CS)C(=O)O)c3ccccc3nc12` (stereo not given), the GI50 is 14.5 µM (inactive) in the experiment with BT-549; 5.75 µM (inactive) in the experiment on CAKI-1; 6.21 µM (inactive) with HCC 2998; 5.32 µM (inactive) with HOP-62; 19.9 µM (inactive) with HOP-92; 4.94 µM (inactive) in the experiment on HT-29. Also, the GI50 was 4.41 µM (inactive) in the experiment on LOX IMVI; 2.52 µM (inactive) with Malme-3M; 15 µM (inactive) in the experiment on NCI-H460; 4.19 µM (inactive) in the experiment with NCI-H522; 17.1 µM (inactive) in the experiment on OVCAR-4; 6.07 µM (inactive) with PC-3. Further, the GI50 is 7.52 µM (inactive) in the experiment with RPMI-8226; 7.94 µM (inactive) with SF-268; 12.1 µM (inactive) in the experiment on SK-MEL-2; 9.86 µM (inactive) with SK-OV-3; 14.4 µM (inactive) in the experiment with SNB-75; 28.8 µM (inactive) in the experiment on TK-10. Moreover, the GI50 with UACC-257 is 10.1 µM (inactive); in the experiment with UACC-62, 21.6 µM (inactive).

Consider `NC(=O)NC(=O)c1cccc(NC(=O)CCl)c1`, for which the GI50 is 1.41 µM (inactive) in the experiment with BT-549; 1.39 µM (inactive) in the experiment on CAKI-1; 0.764 µM (active) in the experiment on HCC 2998; 1.61 µM (inactive) in the experiment on HOP-62; 4.34 µM (inactive) with HOP-92; 0.883 µM (active) in the experiment on HT-29. In addition, the GI50 in the experiment on LOX IMVI is 0.465 µM (active); with Malme-3M it was 5.22 µM (inactive); in the experiment with NCI-H460, 1.5 µM (inactive); with NCI-H522, 1.55 µM (inactive); in the experiment with OVCAR-4 it was 2.19 µM (inactive); with PC-3, 1.08 µM (active). For the same compound, the GI50 was 1.18 µM (inactive) in the experiment with RPMI-8226; 1.91 µM (inactive) in the experiment on SF-268; 2.38 µM (inactive) with SK-MEL-2; 1.45 µM (inactive) in the experiment with SK-OV-3; 1.98 µM (inactive) in the experiment on SNB-75; 1.35 µM (inactive) in the experiment with TK-10. The GI50 in the experiment with UACC-257 is 1.19 µM (inactive); in the experiment on UACC-62, 0.687 µM (active).

In the case of `CC(=O)n1nc(-c2nc3ccccc3nc2Cl)cc1Cl`, the GI50 in the experiment with BT-549 is 5.89 µM (inactive); in the experiment with CAKI-1, 3.34 µM (inactive); in the experiment with HCC 2998, 36.6 µM (inactive); in the experiment on HOP-62, 20.3 µM (inactive); in the experiment on HOP-92, > 69.8 µM (inactive); with HT-29 it was 23 µM (inactive). The GI50 with LOX IMVI is 5.47 µM (inactive); with Malme-3M it was 23.4 µM (inactive); in the experiment on NCI-H460 it was 32.8 µM (inactive); in the experiment with NCI-H522, 7.78 µM (inactive); in the experiment on OVCAR-4, 19.5 µM (inactive); with PC-3, 30.9 µM (inactive). In addition, the GI50 was 13.6 µM (inactive) in the experiment with RPMI-8226; 38.6 µM (inactive) in the experiment on SF-268; 25.6 µM (inactive) with SK-MEL-2; 20.5 µM (inactive) in the experiment on SK-OV-3; 25.8 µM (inactive) with SNB-75; 37.4 µM (inactive) in the experiment with TK-10. Further, the values for the GI50 in the experiment with UACC-257 and in the experiment with UACC-62 were > 68.1 µM (inactive) and 27.2 µM (inactive), respectively.

As to `O=C(NC(Nc1ccc(F)cc1)(C(F)(F)F)C(F)(F)F)C(C(F)(F)F)C(F)(F)F`, the GI50 in the experiment on BT-549 is 18.7 µM (inactive); in the experiment with CAKI-1, > 54.7 µM (inactive); in the experiment with HCC 2998 it was 12 µM (inactive); with HOP-62 it was 99.1 µM (inactive); in the experiment on HOP-92, 51.3 µM (inactive); in the experiment with HT-29, 15.5 µM (inactive). The GI50 is 0.617 µM (active) in the experiment on LOX IMVI; 48 µM (inactive) in the experiment on Malme-3M; 7.98 µM (inactive) in the experiment on NCI-H460; 13.2 µM (inactive) with NCI-H522; 5.52 µM (inactive) in the experiment with OVCAR-4; 4.91 µM (inactive) in the experiment with PC-3. Also, the GI50 was 8.11 µM (inactive) in the experiment on RPMI-8226; 49.8 µM (inactive) in the experiment on SF-268; 3.63 µM (inactive) in the experiment with SK-MEL-2; 72.1 µM (inactive) with SK-OV-3; 36.5 µM (inactive) in the experiment on SNB-75; > 24.9 µM (inactive) in the experiment with TK-10. Besides, the figures for the GI50 in the experiment with UACC-257 and with UACC-62 were 3.3 µM (inactive) and 0.199 µM (active), respectively.

On to `COc1ccc(N2C(=O)C3c4[nH]c5ccc([N+](=O)[O-])cc5c4C4CCC(C(C)(C)C)CC4C3C2=O)cc1` (stereo not given), for which the GI50 in the experiment on BT-549 is 14.5 µM (inactive); in the experiment on CAKI-1, 18.3 µM (inactive); in the experiment with HCC 2998, 10.9 µM (inactive); with HOP-62, 24.4 µM (inactive); in the experiment on HOP-92, 6.9 µM (inactive); in the experiment on HT-29, 3.96 µM (inactive). Besides, the GI50 in the experiment with LOX IMVI was 15.2 µM (inactive); in the experiment on Malme-3M, 28.4 µM (inactive); in the experiment on NCI-H460 it was 2.15 µM (inactive); in the experiment with NCI-H522 it was 19.9 µM (inactive); in the experiment with OVCAR-4, 14.8 µM (inactive); in the experiment with PC-3, 5.21 µM (inactive). Also, the GI50 was 13.3 µM (inactive) with RPMI-8226; 10.1 µM (inactive) with SF-268; 26.1 µM (inactive) with SK-MEL-2; > 100 µM (inactive) in the experiment on SK-OV-3; 7.28 µM (inactive) in the experiment on SNB-75; 25.2 µM (inactive) in the experiment on TK-10. In addition, the GI50 is 35.2 µM (inactive) with UACC-257 and 24 µM (inactive) in the experiment on UACC-62.

For `CC1OC(OC2C[C@](O)(C(=O)CBr)Cc3c(O)c4c(c(O)c32)C(=O)c2ccccc2C4=O)C(F)C(O)C1O` (stereo not given in full), the GI50 was 24.7 µM (inactive) with BT-549; 2.71 µM (inactive) with CAKI-1; 36.3 µM (inactive) in the experiment on HCC 2998; 3.72 µM (inactive) in the experiment on HOP-62; 4.21 µM (inactive) in the experiment on HOP-92; 12.1 µM (inactive) in the experiment with HT-29. For the same compound, the GI50 in the experiment with LOX IMVI was 10 µM (inactive); in the experiment with Malme-3M, 3.66 µM (inactive); in the experiment on NCI-H460, 0.783 µM (active); in the experiment on NCI-H522, 6.18 µM (inactive); in the experiment on OVCAR-4 it was 23.6 µM (inactive); in the experiment with PC-3, 13.4 µM (inactive). Moreover, the GI50 is 1.46 µM (inactive) with RPMI-8226; 13.5 µM (inactive) in the experiment on SF-268; 29.6 µM (inactive) in the experiment on SK-MEL-2; 33.6 µM (inactive) in the experiment with SK-OV-3; 8.83 µM (inactive) in the experiment with SNB-75; 20.3 µM (inactive) in the experiment with TK-10. For the same compound, the GI50 is 13.3 µM (inactive) with UACC-257 and 10.8 µM (inactive) in the experiment on UACC-62.

Take `O=C(O)c1c(-c2c3ccc(=O)cc-3oc3cc(O)ccc23)cc2ccccc2c1-c1ccccc1`: the GI50 was > 100 µM (inactive) in the experiment with BT-549; > 100 µM (inactive) with CAKI-1; > 34 µM (inactive) with HCC 2998; > 100 µM (inactive) in the experiment with HOP-62; > 100 µM (inactive) with HOP-92; > 100 µM (inactive) with HT-29. In addition, the GI50 with LOX IMVI is > 100 µM (inactive); with Malme-3M, > 100 µM (inactive); in the experiment with NCI-H460, > 66.4 µM (inactive); in the experiment with NCI-H522 it was > 100 µM (inactive); in the experiment on OVCAR-4, > 100 µM (inactive); with PC-3, > 100 µM (inactive). For the same compound, the GI50 in the experiment with RPMI-8226 was > 100 µM (inactive); in the experiment with SF-268, > 100 µM (inactive); in the experiment on SK-MEL-2, > 100 µM (inactive); with SK-OV-3, > 100 µM (inactive); with SNB-75, 41.5 µM (inactive); in the experiment on TK-10 it was > 36.6 µM (inactive). The GI50 with UACC-257 and with UACC-62 was > 100 µM (inactive) each time.
